Patent US20250213555A1, “SUBSTITUTED TETRAHYDROFURAN ANALOGS AS MODULATORS OF SODIUM CHANNELS” (VERTEX PHARMACEUTICALS INCORPORATED, priority 2021, published 2025)

Biological target: human Nav 1.8 (Homo sapiens, UniProt Q9Y5Y9)
Assay: E-VIPR assay detecting and measuring Nav inhibition properties
Assay type: cell-based
Settings: HEK cells expressing a truncated form of human Nav 1.8; compound numbers without "*" (not marked as run in the presence of human serum); read-out: measured IC50 value in the E-VIPR Assay
Summary of the method: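 Nav inhibition was read by E-VIPR: cells were electrically stimulated while coumarin/oxonol FRET emissions were recorded. Cells were HEK expressing a truncated human Nav 1.8 and co-transduced with KIR2.1, and were assayed in 25% final human serum.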

Chain of human Nav 1.8 (Q9Y5Y9 126-399 limits assumed): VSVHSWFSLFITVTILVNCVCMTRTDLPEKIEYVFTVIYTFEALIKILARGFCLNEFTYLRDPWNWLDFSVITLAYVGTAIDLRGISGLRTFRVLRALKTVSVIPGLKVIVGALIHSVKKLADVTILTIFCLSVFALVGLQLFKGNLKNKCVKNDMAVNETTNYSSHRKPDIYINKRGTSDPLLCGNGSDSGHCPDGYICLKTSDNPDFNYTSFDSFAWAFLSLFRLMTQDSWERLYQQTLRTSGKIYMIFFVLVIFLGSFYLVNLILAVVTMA
Chain of human Nav 1.8 (Q9Y5Y9 660-890 limits assumed): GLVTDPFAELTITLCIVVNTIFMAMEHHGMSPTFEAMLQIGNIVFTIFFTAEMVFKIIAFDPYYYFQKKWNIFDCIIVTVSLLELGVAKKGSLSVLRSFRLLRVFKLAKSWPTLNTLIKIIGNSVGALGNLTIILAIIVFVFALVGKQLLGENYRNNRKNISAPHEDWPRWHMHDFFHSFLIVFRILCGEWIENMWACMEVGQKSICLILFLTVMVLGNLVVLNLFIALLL
Chain of human Nav 1.8 (Q9Y5Y9 1148-1722 limits assumed): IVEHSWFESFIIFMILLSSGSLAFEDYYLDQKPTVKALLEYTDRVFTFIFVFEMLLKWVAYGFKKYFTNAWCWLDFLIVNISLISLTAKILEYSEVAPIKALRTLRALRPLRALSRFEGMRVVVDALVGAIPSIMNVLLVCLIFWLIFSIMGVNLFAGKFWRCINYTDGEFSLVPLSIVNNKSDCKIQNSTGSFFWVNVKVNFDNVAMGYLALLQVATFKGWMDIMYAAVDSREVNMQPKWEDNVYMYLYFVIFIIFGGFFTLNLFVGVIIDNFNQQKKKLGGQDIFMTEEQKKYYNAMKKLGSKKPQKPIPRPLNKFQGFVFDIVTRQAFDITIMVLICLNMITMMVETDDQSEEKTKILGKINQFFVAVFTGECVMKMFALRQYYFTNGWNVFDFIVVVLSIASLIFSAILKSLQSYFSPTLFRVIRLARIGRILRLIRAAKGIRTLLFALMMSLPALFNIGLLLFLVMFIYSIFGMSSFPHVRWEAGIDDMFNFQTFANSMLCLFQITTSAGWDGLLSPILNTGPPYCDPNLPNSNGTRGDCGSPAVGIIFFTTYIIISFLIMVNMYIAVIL

SMILES	IC50 [nM]
C[C@H]1[C@@H](c2ccc(F)c(F)c2OCCc2cncn2C)[C@H](C(=O)Nc2ccnc(C(N)=O)c2)O[C@@]1(C)C(F)(F)F [Compound 86, 4-((2R,3S,4S,5R)-3-(3,4-difluoro-2-(2-(1-methyl-1H-imidazol-5-yl)ethoxy)phenyl)-4,5-dimethyl-5-(trifluoromethyl)tetrahydrofuran-2-carboxamido)picolinamide]	< 10
C[C@H]1[C@@H](c2ccc(F)c(F)c2OCCc2nccn2C)[C@H](C(=O)Nc2ccnc(C(N)=O)c2)O[C@@]1(C)C(F)(F)F [Compound 87, 4-((2R,3S,4S,5R)-3-(3,4-difluoro-2-(2-(1-methyl-1H-imidazol-2-yl)ethoxy)phenyl)-4,5-dimethyl-5-(trifluoromethyl)tetrahydrofuran-2-carboxamido)picolinamide]	10 to 100
C[C@H]1[C@@H](c2ccc(F)c(F)c2OCc2cn(C)cn2)[C@H](C(=O)Nc2ccnc(C(N)=O)c2)O[C@@]1(C)C(F)(F)F [Compound 88, 4-((2R,3S,4S,5R)-3-(3,4-difluoro-2-((1-methyl-1H-imidazol-4-yl)methoxy)phenyl)-4,5-dimethyl-5-(trifluoromethyl)tetrahydrofuran-2-carboxamido)picolinamide]	< 10
C[C@H]1[C@@H](c2ccc(F)c(F)c2OCc2cncn2C)[C@H](C(=O)Nc2ccnc(C(N)=O)c2)O[C@@]1(C)C(F)(F)F [Compound 89, 4-((2R,3S,4S,5R)-3-(3,4-difluoro-2-((1-methyl-1H-imidazol-5-yl)methoxy)phenyl)-4,5-dimethyl-5-(trifluoromethyl)tetrahydrofuran-2-carboxamido)picolinamide]	< 10
CC(CO)COc1c([C@H]2[C@H](C(=O)Nc3ccnc(C(N)=O)c3)O[C@@](C)(C(F)(F)F)[C@H]2C)ccc(F)c1F (stereo partly drawn) [Compound 90, 4-((2R,3S,4S,5R)-3-(3,4-difluoro-2-(3-hydroxy-2-methylpropoxy)phenyl)-4,5-dimethyl-5-(trifluoromethyl)tetrahydrofuran-2-carboxamido)picolinamide]	< 10
C[C@H]1[C@@H](c2ccc(F)c(F)c2OCC(CO)CO)[C@H](C(=O)Nc2ccnc(C(N)=O)c2)O[C@@]1(C)C(F)(F)F [Compound 91, 4-((2R,3S,4S,5R)-3-(3,4-difluoro-2-(3-hydroxy-2-(hydroxymethyl)propoxy)phenyl)-4,5-dimethyl-5-(trifluoromethyl)tetrahydrofuran-2-carboxamido)picolinamide]	100 to 1000
C[C@H]1[C@@H](c2ccc(F)c(F)c2OCC2(CO)COC2)[C@H](C(=O)Nc2ccnc(C(N)=O)c2)O[C@@]1(C)C(F)(F)F [Compound 94, 4-((2R,3S,4S,5R)-3-(3,4-difluoro-2-((3-(hydroxymethyl)oxetan-3-yl)methoxy)phenyl)-4,5-dimethyl-5-(trifluoromethyl)tetrahydrofuran-2-carboxamido)picolinamide]	100 to 1000
C[C@H]1[C@@H](c2ccc(F)c(F)c2OCC2(CO)CC2)[C@H](C(=O)Nc2ccnc(C(N)=O)c2)O[C@@]1(C)C(F)(F)F [Compound 95, 4-((2R,3S,4S,5R)-3-(3,4-difluoro-2-((1-(hydroxymethyl)cyclopropyl)methoxy)phenyl)-4,5-dimethyl-5-(trifluoromethyl)tetrahydrofuran-2-carboxamido)picolinamide]	< 10
CNC(=O)COc1c([C@H]2[C@H](C(=O)Nc3ccnc(C(N)=O)c3)O[C@@](C)(C(F)(F)F)[C@H]2C)ccc(F)c1F [Compound 96, 4-((2R,3S,4S,5R)-3-(3,4-difluoro-2-(2-(methylamino)-2-oxoethoxy)phenyl)-4,5-dimethyl-5-(trifluoromethyl)tetrahydrofuran-2-carboxamido)picolinamide]	10 to 100
C[C@H]1[C@@H](c2ccc(F)c(F)c2OCC2(CO)CCC2)[C@H](C(=O)Nc2ccnc(C(N)=O)c2)O[C@@]1(C)C(F)(F)F [Compound 97, 4-((2R,3S,4S,5R)-3-(3,4-difluoro-2-((1-(hydroxymethyl)cyclobutyl)methoxy)phenyl)-4,5-dimethyl-5-(trifluoromethyl)tetrahydrofuran-2-carboxamido)picolinamide]	10 to 100
CC1C(c2ccc(F)c(F)c2OCC2CCC2O)C(C(=O)Nc2ccnc(C(N)=O)c2)OC1(C)C(F)(F)F [Compound 98, rel-4-((2R*,3S*,4S*,5R*)-3-(3,4-difluoro-2-(((15,2S)-2-hydroxycyclobutyl)methoxy)phenyl)-4,5-dimethyl-5-(trifluoromethyl)tetrahydrofuran-2-carboxamido)picolinamide]	10 to 100
C[C@H]1[C@@H](c2ccc(F)c(F)c2OCCC(C)(C)O)[C@H](C(=O)Nc2ccnc(C(N)=O)c2)O[C@@]1(C)C(F)(F)F [Compound 100, 4-((2R,3S,4S,5R)-3-(3,4-difluoro-2-(3-hydroxy-3-methylbutoxy)phenyl)-4,5-dimethyl-5-(trifluoromethyl)tetrahydrofuran-2-carboxamido)picolinamide]	10 to 100
C[C@H]1[C@@H](c2ccc(F)c(F)c2OC2CN(C)C2)[C@H](C(=O)Nc2ccnc(C(N)=O)c2)O[C@@]1(C)C(F)(F)F [Compound 101, 4-((2R,3S,4S,5R)-3-(3,4-difluoro-2-((1-methylazetidin-3-yl)oxy)phenyl)-4,5-dimethyl-5-(trifluoromethyl)tetrahydrofuran-2-carboxamido) picolinamide]	10 to 100
C[C@H]1[C@@H](c2ccc(F)c(F)c2OCC2CN(C)C2)[C@H](C(=O)Nc2ccnc(C(N)=O)c2)O[C@@]1(C)C(F)(F)F [Compound 104, 4-((2R,3S,4S,5R)-3-(3,4-difluoro-2-((1-methylazetidin-3-yl)methoxy)phenyl)-4,5-dimethyl-5-(trifluoromethyl)tetrahydrofuran-2-carboxamido)picolinamide]	10 to 100
C[C@H]1[C@@H](c2ccc(F)c(F)c2OCC2(F)CN(C)C2)[C@H](C(=O)Nc2ccnc(C(N)=O)c2)O[C@@]1(C)C(F)(F)F [Compound 105, 4-((2R,3S,4S,5R)-3-(3,4-difluoro-2-((3-fluoro-1-methylazetidin-3-yl)methoxy)phenyl)-4,5-dimethyl-5-(trifluoromethyl)tetrahydrofuran-2-carboxamido)picolinamide]	10 to 100
C[C@H]1[C@@H](c2ccc(F)c(F)c2OCC2(F)CNC2)[C@H](C(=O)Nc2ccnc(C(N)=O)c2)O[C@@]1(C)C(F)(F)F [Compound 106, 4-((2R,3S,4S,5R)-3-(3,4-difluoro-2-((3-fluoroazetidin-3-yl)methoxy)phenyl)-4,5-dimethyl-5-(trifluoromethyl)tetrahydrofuran-2-carboxamido)picolinamide]	100 to 1000
C[C@H]1[C@@H](c2ccc(F)c(F)c2OCCN2CCCOCC2)[C@H](C(=O)Nc2ccnc(C(N)=O)c2)O[C@@]1(C)C(F)(F)F [Compound 108, 4-((2R,3S,4S,5R)-3-(2-(2-(1,4-oxazepan-4-yl)ethoxy)-3,4-difluorophenyl)-4,5-dimethyl-5-(trifluoromethyl)tetrahydrofuran-2-carboxamido)picolinamide]	10 to 100
C[C@@H]1CN(CCOc2c([C@H]3[C@H](C(=O)Nc4ccnc(C(N)=O)c4)O[C@@](C)(C(F)(F)F)[C@H]3C)ccc(F)c2F)CCO1 [Compound 109, 4-((2R,3S,4S,5R)-3-(3,4-difluoro-2-(2-((R)-2-methylmorpholino)ethoxy)phenyl)-4,5-dimethyl-5-(trifluoromethyl)tetrahydrofuran-2-carboxamido)picolinamide]	< 10
C[C@H]1[C@@H](c2ccc(F)c(F)c2OCCN2CC3CC(C2)O3)[C@H](C(=O)Nc2ccnc(C(N)=O)c2)O[C@@]1(C)C(F)(F)F [Compound 110, 4-((2R,3S,4S,5R)-3-(2-(2-(6-oxa-3-azabicyclo[3.1.1]heptan-3-yl)ethoxy)-3,4-difluorophenyl)-4,5-dimethyl-5-(trifluoromethyl)tetrahydrofuran-2-carboxamido)picolinamide]	< 10
C[C@H]1CN(CCOc2c([C@H]3[C@H](C(=O)Nc4ccnc(C(N)=O)c4)O[C@@](C)(C(F)(F)F)[C@H]3C)ccc(F)c2F)CCO1 [Compound 111, 4-((2R,3S,4S,5R)-3-(3,4-difluoro-2-(2-((S)-2-methylmorpholino)ethoxy)phenyl)-4,5-dimethyl-5-(trifluoromethyl)tetrahydrofuran-2-carboxamido)picolinamide]	< 10
C[C@H]1[C@@H](c2ccc(F)c(F)c2OCCNCC(F)F)[C@H](C(=O)Nc2ccnc(C(N)=O)c2)O[C@@]1(C)C(F)(F)F [Compound 112, 4-((2R,3S,4S,5R)-3-(2-(2-((2,2-difluoroethyl)amino)ethoxy)-3,4-difluorophenyl)-4,5-dimethyl-5-(trifluoromethyl)tetrahydrofuran-2-carboxamido)picolinamide]	< 10
C[C@H]1[C@@H](c2ccc(F)c(F)c2OCCN2C3CCC2COC3)[C@H](C(=O)Nc2ccnc(C(N)=O)c2)O[C@@]1(C)C(F)(F)F [Compound 113, 4-((2R,3S,4S,5R)-3-(2-(2-(3-oxa-8-azabicyclo[3.2.1]octan-8-yl)ethoxy)-3,4-difluorophenyl)-4,5-dimethyl-5-(trifluoromethyl)tetrahydrofuran-2-carboxamido)picolinamide]	10 to 100
CNCCOc1c([C@H]2[C@H](C(=O)Nc3ccnc(C(N)=O)c3)O[C@@](C)(C(F)(F)F)[C@H]2C)ccc(F)c1F [Compound 114, 4-((2R,3S,4S,5R)-3-(3,4-difluoro-2-(2-(methylamino)ethoxy)phenyl)-4,5-dimethyl-5-(trifluoromethyl)tetrahydrofuran-2-carboxamido)picolinamide]	10 to 100
CC(C)NCCOc1c([C@H]2[C@H](C(=O)Nc3ccnc(C(N)=O)c3)O[C@@](C)(C(F)(F)F)[C@H]2C)ccc(F)c1F [Compound 115, 4-((2R,3S,4S,5R)-3-(3,4-difluoro-2-(2-(isopropylamino)ethoxy)phenyl)-4,5-dimethyl-5-(trifluoromethyl)tetrahydrofuran-2-carboxamido)picolinamide]	100 to 1000
